Results as given in patent US20160159789A1, “SUBSTITUTED PYRAZOLOPYRIDINES” (BAYER PHARMA AKTIENGESELLSCHAFT, priority 2013, published 2016).

Molecular target: T1, human full-length MKNK1 (Homo sapiens, UniProt Q9BUB5, T385D)
T1 construct: purchased Carna Biosciences 02-145; host or cells: insect cells (baculovirus expression system)
Experiment: MKNK1 kinase high ATP assay (TR-FRET)
Assay type: biochemical
Conditions: high ATP (2 mM final), 15 min preincubation with enzyme, GST-MKNK1 (T344D)
How it was run: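 GST-tagged full-length human MKNK1 from insect cells, preincubated 15 min with compound at 22° C in HEPES pH 7.5/MgCl2/DTT buffer, then reacted 30 min with 2 mM ATP and 0.06 μM biotinylated peptide (final). Phosphopeptide detected by TR-FRET (anti-pS6 pSer236/Eu-ProteinG, streptavidin-XL665), 665/620 ratio normalised to no-enzyme and no-inhibitor controls.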

T1 sequence (Q9BUB5 1-424 isoform Q9BUB5-2 T344D): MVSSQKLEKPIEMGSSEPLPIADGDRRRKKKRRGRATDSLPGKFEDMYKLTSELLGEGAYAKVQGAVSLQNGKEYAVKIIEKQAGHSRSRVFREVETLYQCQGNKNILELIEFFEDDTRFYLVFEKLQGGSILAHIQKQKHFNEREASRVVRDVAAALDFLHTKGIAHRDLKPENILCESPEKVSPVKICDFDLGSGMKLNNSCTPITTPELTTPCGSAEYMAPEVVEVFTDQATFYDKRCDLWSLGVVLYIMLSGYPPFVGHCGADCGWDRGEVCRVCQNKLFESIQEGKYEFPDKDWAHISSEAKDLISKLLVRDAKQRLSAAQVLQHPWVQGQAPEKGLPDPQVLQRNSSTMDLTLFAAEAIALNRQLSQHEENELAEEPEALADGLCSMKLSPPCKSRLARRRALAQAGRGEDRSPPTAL

SMILES | IC50
COc1nc2[nH]ncc2cc1Nc1ncnc2[nH]c(C(=O)N3CCC(N(C)C)CC3)c(Br)c12 [Example 64, {5-Bromo-4-[(6-methoxy-1H-pyrazolo[3,4-b]pyridin-5-yl)amino]-7H-pyrrolo[2,3-d]pyrimidin-6-yl}[4-(dimethylamino)piperidin-1-yl]methanone] | 4.2 nM
CN1CCN(C(=O)[C@H]2CCc3c(sc4ncnc(Nc5cc6cn[nH]c6nc5O)c34)C2)CC1 [Example 116] | 2.1 nM
COc1nc2[nH]ncc2cc1Nc1ncnc2[nH]c(C(=O)N3CCOC[C@@H]3C)c(Br)c12 [Example 135] | 7.3 nM
O=C(c1cc2c(Nc3cc4cn[nH]c4cn3)ncnc2[nH]1)N1CCCC1 [Example 19, [4-(1H-Pyrazolo[3,4-c]pyridin-5-ylamino)-7H-pyrrolo[2,3-d]pyrimidin-6-yl](pyrrolidin-1-yl)methanone] | 5.8 nM
COc1nc2[nH]ncc2cc1Nc1ncnc2sc3c(c12)CC[C@H](C(=O)N1C[C@@H]2C[C@H]1CO2)C3 [Example 40] | 2.5 nM
COc1nc2[nH]ncc2cc1Nc1ncnc2[nH]c(C(=O)N(C)CCCN(C)C)c(Br)c12 [Example 131, 5-Bromo-N-[3-(dimethylamino)propyl]-4-[(6-methoxy-1H-pyrazolo[3,4-b]pyridin-5-yl)amino]-N-methyl-7H-pyrrolo[2,3-d]pyrimidine-6-carboxamide] | 6.7 nM
COCCN(CCOC)C(=O)[C@H]1CCc2c(sc3ncnc(Nc4cc5cn[nH]c5cn4)c23)C1 [Example 56, (7S)—N, N-Bis(2-methoxyethyl)-4-(1H-pyrazolo[3,4-c]pyridin-5-ylamino)-5,6,7,8-tetrahydro[1]benzothieno[2,3-d]pyrimidine-7-carboxamide] | 8.1 nM
Cc1c[nH]c2ncnc(Nc3cc4cn[nH]c4cn3)c12 [Example 4, N-(5-Methyl-7H-pyrrolo[2,3-d]pyrimidin-4-yl)-1H-pyrazolo[3,4-c]pyridin-5-amine] | 4.2 nM
N#CC1CN(C(=O)[C@H]2CCc3c(sc4ncnc(Nc5cc6cn[nH]c6cn5)c34)C2)C1 [Example 82, 1-{[(7S)-4-(1H-Pyrazolo[3,4-c]pyridin-5-ylamino)-5,6,7,8-tetrahydro[1]benzothieno[2,3-d]pyrimidin-7-yl]carbonyl}azetidine-3-carbonitrile] | 3.2 nM
CN(C)C1CCN(C(=O)c2[nH]c3ncnc(Nc4cc5cn[nH]c5nc4O)c3c2Br)CC1 [Example 65] | 2.8 nM
CC(C)N(C)C(=O)[C@H]1CCc2c(sc3ncnc(Nc4cc5cn[nH]c5nc4O)c23)C1 [Example 114, (7S)-4-[(6-Hydroxy-1H-pyrazolo[3,4-b]pyridin-5-yl)amino]-N-methyl-N-(propan-2-yl)-5,6,7,8-tetrahydro[1]benzothieno[2,3-d]pyrimidine-7-carboxamide] | 4.6 nM
CN1CCN(C(=O)C2CCc3[nH]c4ncnc(Nc5cc6cn[nH]c6cn5)c4c3C2)CC1 (racemic) [Example 33, (RS)-(4-Methylpiperazin-1-yl)[4-(1H-pyrazolo[3,4-c]pyridin-5-ylamino)-6,7,8,9-tetrahydro-5H-pyrimido[4,5-b]indol-6-yl]methanone] | 90.4 nM
C[C@H]1COCCN1C(=O)c1[nH]c2ncnc(Nc3cnc4[nH]ncc4c3)c2c1Br [Example 75, [5-Bromo-4-(1H-pyrazolo[3,4-b]pyridin-5-ylamino)-7H-pyrrolo[2,3-d]pyrimidin-6-yl][(3S)-3-methymorpholin-4-yl]methanone] | 61 nM
C[C@@H]1COCCN1C(=O)c1[nH]c2ncnc(Nc3cnc4[nH]ncc4c3)c2c1Br [Example 73, [5-Bromo-4-(1H-pyrazolo[3,4-b]pyridin-5-ylamino)-7H-pyrrolo[2,3-d]pyrimidin-6-yl][(3R)-3-methylmorpholin-4-yl]methanone] | 144 nM
FC(F)(F)c1c[nH]c2ncnc(Nc3cnc4[nH]ncc4c3)c12 [Example 15, N-[5-(Trifluoromethyl)-7H-pyrrolo[2,3-d]pyrimidin-4-yl]-1H-pyrazolo[3,4-b]pyridin-5-amine] | 28.8 nM
CC(C)NC(=O)C1CCc2c(sc3ncnc(Nc4cnc5[nH]ncc5c4)c23)C1 (racemic) [Example 23, (RS)—N-(Propan-2-yl)-4-(1H-pyrazolo[3,4-b]pyridin-5-ylamino)-5,6,7,8-tetrahydro[1]benzothieno[2,3-d]pyrimidine-7-carboxamide] | 10.4 nM
COc1nc2[nH]ncc2cc1Nc1ncnc2sc3c(c12)CC[C@H](C(=O)N1C[C@H]2C[C@@H]1CO2)C3 [Example 41] | 1.6 nM
CN(CCN(C)C(=O)c1cc2c(Nc3cc4cn[nH]c4cn3)ncnc2[nH]1)Cc1ccccc1 [Example 78, N-{2-[Benzyl(methyl)amino]ethyl}-N-methyl-4-(1H-pyrazolo[3,4-c]pyridin-5-ylamino)-7H-pyrrolo[2,3-d]pyrimidine-6-carboxamide] | 7.4 nM
CN(C)C(=O)[C@H]1CCc2c(sc3ncnc(Nc4cc5cn[nH]c5cn4)c23)C1 [Example 60, (7S)—N,N-Dimethyl-4-(1H-pyrazolo[3,4-c]pyridin-5-ylamino)-5,6,7,8-tetrahydro[1]benzothieno[2,3-d]pyrimidine-7-carboxamide] | 7.7 nM
CN(C)C(=O)c1nc2c(Nc3cnc4[nH]ncc4c3)ncnc2s1 [Example 123, N,N-Dimethyl-7-(1H-pyrazolo[3,4-b]pyridin-5-ylamino)[1,3]thiazolo[5,4-d]pyrimidine-2-carboxamide] | 230 nM
CCCCN(C)C(=O)[C@H]1CCc2c(sc3ncnc(Nc4cc5cn[nH]c5nc4O)c23)C1 [Example 52, (7S)—N-Butyl-4-[(6-hydroxy-1H-pyrazolo[3,4-b]pyridin-5-yl)amino]-N-methyl-5,6,7,8-tetrahydro[1]benzothieno[2,3-d]pyrimidine-7-carboxamide] | 6 nM
C[C@H]1COCCN1C(=O)c1[nH]c2ncnc(Nc3cc4cn[nH]c4cn3)c2c1Br [Example 121, [5-Bromo-4-(1H-pyrazolo[3,4-c]pyridin-5-ylamino)-7H-pyrrolo[2,3-d]pyrimidin-6-yl][(3S)-3-methylmorpholin-4-yl]methanone] | 30.1 nM
CCCCN(C)C(=O)[C@H]1CCc2c(sc3ncnc(Nc4cc5cn[nH]c5nc4OC)c23)C1 [Example 51, (7S)—N—Butyl-4-[(6-methoxy-1H-pyrazolo[3,4-b]pyridin-5-yl)amino]-N-methyl-5,6,7,8-tetrahydro[1]benzothieno[2,3-d]pyrimidine-7-carboxamide] | 0.5 nM
O=C(c1cc2c(Nc3cc4cn[nH]c4cn3)ncnc2[nH]1)N1CCOCC1 [Example 21, Morpholin-4-yl[4-(1H-pyrazolo[3,4-c]pyridin-5-ylamino)-7H-pyrrolo[2,3-d]pyrimidin-6-yl]methanone] | 4.2 nM

Continued by falling IC50, values first:

IC50 | SMILES
203 nM | CN(C)C(=O)CCN(C)C(=O)c1nc2c(Nc3cc4cn[nH]c4cn3)ncnc2s1 [Example 137, N-[3-(Dimethylamino)-3-oxopropyl]-N-methyl-7-(1H-pyrazolo[3,4-c]pyridin-5-ylamino)[1,3]thiazolo[5,4-d]pyrimidine-2-carboxamide]
52.9 nM | FC(F)(F)c1c[nH]c2ncnc(Nc3cc4cn[nH]c4cn3)c12 [Example 16, N-[5-(Trifluoromethyl)-7H-pyrrolo[2,3-d]pyrimidin-4-yl]-1H-pyrazolo[3,4-c]pyridin-5-amine]
28.7 nM | C[C@H]1COCCN1C(=O)[C@H]1CCc2c(sc3ncnc(Nc4cnc5[nH]ncc5c4)c23)C1 [Example 104, [(3S)-3-Methylmorpholin-4-yl][(7S)-4-(1H-pyrazolo[3,4-b]pyridin-5-ylamino)-5,6,7,8-tetrahydro[1]benzothieno[2,3-d]pyrimidin-7-yl]methanone]
28.1 nM | c1nc(Nc2cnc3[nH]ncc3c2)c2cc[nH]c2n1 [Example 1, N-(7H-Pyrrolo[2,3-d]pyrimidin-4-yl)-1H-pyrazolo[3,4-b]pyridin-5-amine]
18 nM | CC(C)N(C)C(=O)[C@H]1CCc2c(sc3ncnc(Nc4cnc5[nH]ncc5c4)c23)C1 [Example 95, (7S)—N-Methyl-N-(propan-2-yl)-4-(1H-pyrazolo[3,4-b]pyridin-5-ylamino)-5,6,7,8-tetrahydro[1]benzothieno[2,3-d]pyrimidine-7-carboxamide]
14.5 nM | CN(C)CCNC(=O)c1[nH]c2ncnc(Nc3cc4cn[nH]c4cn3)c2c1Br [Example 120, 5-Bromo-N-[2-(dimethylamino)ethyl]-4-(1H-pyrazolo[3,4-c]pyridin-5-ylamino)-7H-pyrrolo[2,3-d]pyrimidine-6-carboxamide]
14.5 nM | N#CC1CN(C(=O)[C@H]2CCc3c(sc4ncnc(Nc5cnc6[nH]ncc6c5)c34)C2)C1 [Example 99, 1-{[(7S)-4-(1H-Pyrazolo[3,4-b]pyridin-5-ylamino)-5,6,7,8-tetrahydro[1]benzothieno[2,3-d]pyrimidin-7-yl]carbonyl}azetidine-3-carbonitrile]
13.3 nM | CN(C)C1CCN(C(=O)[C@H]2CCc3c(sc4ncnc(Nc5cnc6[nH]ncc6c5)c34)C2)CC1 [Example 107, [4-(Dimethylamino)piperidin-1-yl][(7S)-4-(1H-pyrazolo[3,4-b]pyridin-5-ylamino)-5,6,7,8-tetrahydro[1]benzothieno[2,3-d]pyrimidin-7-yl]methanone]
11.1 nM | CN(CC(C)(C)O)C(=O)[C@H]1CCc2c(sc3ncnc(Nc4cc5cn[nH]c5cn4)c23)C1 [Example 47, (7S)—N-(2-Hydroxy-2-methylpropyl)-N-methyl-4-(1H-pyrazolo[3,4-c]pyridin-5-ylamino)-5,6,7,8-tetrahydro[1]benzothieno[2,3-d]pyrimidine-7-carboxamide]
10.7 nM | CC(C)NC(=O)C1CCc2c(sc3ncnc(Nc4cc5cn[nH]c5cn4)c23)C1 (racemic) [Example 24, (RS)—N-(Propan-2-yl)-4-(1H-pyrazolo[3,4-c]pyridin-5-ylamino)-5,6,7,8-tetrahydro[1]benzothieno[2,3-d]pyrimidine-7-carboxamide]
